The structures appear in SMILES notation.

For the test, the target named is T1, Human prostaglandin E2 receptor 4 (EP4) (Homo sapiens, UniProt P35408).
T1 construct: expressed in transfected cells; host or cells: HEK293 cells transduced with EP4 BacMam virus
As to the kind of experiment: cAMP Gs Functional Assay (HTRF cAMP dynamic-2), antagonism of PGE2. In kind it is cell-based. The following applies: HEK293 cells transfected with EP4 BacMam virus; PGE2 challenge at EC80 (7 nM); pIC50 converted to functional pKb with a modified Cheng Prussoff equation; read-out: Human EP4 fpKb (converted). As for the experimental part:
Cloning, Baculovirus generation, large scale infection of HEK293 cells and membrane preparation: Human prostaglandin E2 receptor 4 (EP4) was cloned into pBacMam expression vector (GeneScript, UK). Transposition of EP4 DNA was performed using Invitrogen's Bac-to-Bac Baculovirus Expression Systems. P0 baculovirus was generated by transfecting SF9 Cells with bacmid DNA using Cellfectin II transfection reagent (ThermoFisher Scientific, UK, catalog number 10362-100). Following P0 generation P1 virus was then generated ready for large scale infection and membrane preparation. HEK293 cells were grown in DMEM+Glutamax, supplemented with 10% heat inactivated fetal bovine serum (FBS). Cells were infected at a seeding density of 3.5 million cells/mL in 500 cm^3 flasks at 5% v/v EP4 Bacman. Expression was carried out over 36 hr period at 37° C. with 5% CO2. The cells were removed using PBS and a cell scrapper. The cell culture was centrifuged at 2500 RPM for 10 mins at 4° C. The supernatant was then poured off and the pellet stored at −80° C. The pellet was defrosted and re-suspended in 15 mL of homogenising buffer (20 mM HEPES, 10 mM EDTA, pH 7.4). Then homogenised in mechanical homogeniser (VMR) for 10 seconds. The membrane was centrifuged in centrifuge tubes at 40,000 g for 15 mins at 4° C. The supernatant was poured away and re-suspended in 15 mL of homogenising buffer. Homogenised for 20 seconds. The membrane was centrifuged at 40,000 g for 45 mins at 4° C. The membrane was re-suspended in 3 mL of storage buffer (20 mM HEPES, 0.1 mM EDTA, pH 7.4) mixing well. The resulting membranes were then stored at −80° C.
cAMP Gs Functional Assay: cAMP production following EP4 receptor activation was determined using the Homogeneous Time-Resolved Fluorescence (HTRF) cAMP dynamic-2 assay (Cisbio, France). HEK293 cells were transfected using a 0.5% EP4 Bacman virus for 36 hours, before dissociating the cells, and freezing at […].
On the day of testing, increasing concentration of test compounds, alongside positive controls (1 uM ONO-AE3-208) and negative control (DMSO (Sigma-Aldrich, UK) were added to a ProxiPlate-384 Plus, White 384-shallow well Mircoplate, (PerkinElmer, USA) using the ECHO dispense.
Cells were defrosted in a water bath and resuspended in DMEM supplemented with 10% FBS before centrifuging at 1200 RPM for 5 mins to form a pellet. The pellet was resuspended in assay buffer (DMEM+0.5 mM IBMX (Tocris, Abingdon, UK, Catalog Number 2845)) to a 1×10^6 cells/mL. Cell suspension, for a final assay concentration of 5000 cell/well was added using the multidrop to the pre-dispensed assay plate. The plate was then incubated at 37° C. for 30 mins, with 5% CO2. After incubation, EC80 concentration (7 nM) of PGE2 (EP4 agonist) was added to the plate. In parallel, a PGE2 dose-response curve was dispense to a separate plate. Assay buffer was then dispensed on top. The cAMP production was determined as manufacturer's instructions, before plates were read on a PheraStar fluorescence plate reader (BMG LabTech, Germany).
The pIC50 was converted to a functional pKb value using a modified Cheng Prussoff equation where Kd=agonist EC50 and Lhot=agonist challenge concentration;

T1 sequence (P35408 whole entry): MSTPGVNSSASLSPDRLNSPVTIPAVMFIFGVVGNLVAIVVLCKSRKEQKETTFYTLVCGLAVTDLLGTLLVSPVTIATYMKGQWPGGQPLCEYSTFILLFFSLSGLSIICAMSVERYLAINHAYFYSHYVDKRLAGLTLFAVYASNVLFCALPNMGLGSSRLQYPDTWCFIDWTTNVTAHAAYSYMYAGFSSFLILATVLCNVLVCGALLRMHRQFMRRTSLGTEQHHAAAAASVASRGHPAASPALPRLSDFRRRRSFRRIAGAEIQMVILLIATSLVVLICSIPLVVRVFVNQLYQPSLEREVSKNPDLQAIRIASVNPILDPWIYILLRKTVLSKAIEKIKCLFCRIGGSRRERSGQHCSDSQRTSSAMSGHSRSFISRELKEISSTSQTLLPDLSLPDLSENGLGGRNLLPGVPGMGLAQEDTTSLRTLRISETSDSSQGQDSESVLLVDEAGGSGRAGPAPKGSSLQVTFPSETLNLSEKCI

On to `CC(C)[C@@H](OCc1ccc(F)c(OC(F)F)c1)C(=O)NC1(c2ccc(C(=O)O)cc2)CC1` [Example 57, (R)-4-(1-(2-((3-(difluoromethoxy)-4-fluorobenzyl)oxy)-3-methylbutanamido)cyclopropyl)benzoic acid], for which the Ki was 0.372 nM.

Take `CC(C)[C@@H](OCc1ccc(C(F)(F)F)cc1)C(=O)NC1(c2ccc(C(=O)O)cc2)CC1` [Example 2, (R)-4-(1-(3-methyl-2-((4-(trifluoromethyl)benzyl)oxy)butanamido)cyclopropyl)benzoic acid]: the Ki was 0.891 nM.

As for `CC(C)[C@@H](OCc1ccc(C(F)(F)F)cn1)C(=O)NC1(c2ccc(C(=O)O)cc2)CC1` [Example 75, (R)-4-(1-(3-methyl-2-((5-(trifluoromethyl)pyridin-2-yl)methoxy)butanamido)cyclopropyl)benzoic acid], the Ki is 69.2 nM.

As to `O=C(O)c1ccc(C2(NC(=O)C(OCc3cccc(OC(F)F)c3)C3CCC3)CC2)cc1` (centres unmarked) [Example 99, 4-(1-(2-cyclobutyl-2-((3-(difluoromethoxy)benzyl)oxy)acetamido)cyclopropyl)benzoic acid], the Ki is 3.31 nM.

For `CC(C)C(OCc1ccc(C2COC2)cc1)C(=O)N[C@@H](C)c1ccc(C(=O)O)cc1` (mixture of isomers) [Example 47, 4-((1S)-1-(3-methyl-2-((4-(oxetan-3-yl)benzyl)oxy)butanamido)ethyl)benzoic acid], the Ki is 64.6 nM.

On to `CC(C)[C@@H](OCc1cccc(Cl)c1)C(=O)NC1(c2ccc(C(=O)O)cc2)CC1` [Example 50, (R)-4-(1-(2-((3-chlorobenzyl)oxy)-3-methylbutanamido)cyclopropyl)benzoic acid], for which the Ki was greater than 12900 nM.

For the compound `CC(C)[C@@H](OCc1ccc(C(F)F)cn1)C(=O)N[C@@H](C)c1ccc(C(=O)O)cc1` [Example 34, 4-((S)-1-((R)-2-((5-(difluoromethyl)pyridin-2-yl)methoxy)-3-methylbutanamido)ethyl)benzoic acid], the Ki is 20.9 nM.

`CC(C)[C@@H](OCc1cccc(OC(F)F)c1)C(=O)N[C@@H](C)c1ccc(C(=O)O)cc1` [Example 24, 4-((S)-1-((R)-2-((3-(difluoromethoxy)benzyl)oxy)-3-methylbutanamido)ethyl)benzoic acid]: the Ki was 0.302 nM.

In the case of `CC(C)[C@@H](OCc1cccc(OC(F)F)c1)C(=O)NC1(c2ccc(C(=O)O)cc2)CC1` [Example 52, (R)-4-(1-(2-((3-(difluoromethoxy)benzyl)oxy)-3-methylbutanamido)cyclopropyl)benzoic acid], the Ki is 0.389 nM.

As to `CC(C)[C@@H](OCc1cccc(C2CC2)c1)C(=O)NC1(c2ccc(C(=O)O)cc2)CC1` [Example 65, (R)-4-(1-(2-((3-cyclopropylbenzyl)oxy)-3-methylbutanamido)cyclopropyl)benzoic acid], the Ki is greater than 209 nM.

Take `CC(C)[C@@H](OCc1cccc(OC(F)(F)F)c1)C(=O)N[C@@H](C)c1ccc(C(=O)O)cc1` [Example 20, 4-((S)-1-((R)-3-methyl-2-((3-(trifluoromethoxy)benzyl)oxy)butanamido)ethyl)benzoic acid]: the Ki was 0.0955 nM.

As for `CC(C)[C@H](OCc1ccc(C(F)(F)F)cc1)C(=O)N[C@@H](C)c1ccc(C(=O)O)cc1` [Example 16, 4-((S)-1-((S)-3-methyl-2-((4-(trifluoromethyl)benzyl)oxy)butanamido)ethyl)benzoic acid], the Ki was 178 nM.

For the compound `CC(C)[C@@H](OCc1cccc(C2CC2)c1)C(=O)N[C@@H](C)c1ccc(C(=O)O)cc1` [Example 39, 4-((S)-1-((R)-2-((3-cyclopropylbenzyl)oxy)-3-methylbutanamido)ethyl)benzoic acid], the Ki is 0.229 nM.

Consider `CC(C)[C@@H](OCc1cccc(C2CC2)c1)C(=O)NC1(c2ccc(-c3nnn[nH]3)cc2)CC1` [Example 80, (R)-2-((3-cyclopropylbenzyl)oxy)-N-(1-(4-(2,3-dihydro-1H-tetrazol-5-yl)phenyl)cyclopropyl)-3-methylbutanamide], for which the Ki was 0.195 nM.

The record behind these values is patent US12391641B2, “Prostaglandin EP4 receptor antagonist compounds” (NXERA PHARMA UK LIMITED, priority 2019, dated 2025).
